Reference: PubChem BioAssay (NCI)
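GI50: concentration for 50% inhibition of growth. The concentration for full growth arrest is given as TGI.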

Legend:
Assay in all cases: NCI anticancer screen, dose series, 384-well format
M14 melanoma = test system: M14 melanoma
UACC-62 melanoma = test system: UACC-62 melanoma
NCI/ADR-RES ovarian = test system: NCI/ADR-RES ovarian
OVCAR-5 ovarian = test system: OVCAR-5 ovarian
HCT-15 colon = test system: HCT-15 colon
SK-MEL-28 melanoma = test system: SK-MEL-28 melanoma
MCF7 breast = test system: MCF7 breast
T-47D breast = test system: T-47D breast
MALME-3M melanoma = test system: MALME-3M melanoma
HL-60(TB) leukemia = test system: HL-60(TB) leukemia
PC-3 prostate = test system: PC-3 prostate
LOX IMVI melanoma = test system: LOX IMVI melanoma
HT29 colon = test system: HT29 colon
CAKI-1 renal = test system: CAKI-1 renal
HOP-62 NSCLC = test system: HOP-62 NSCLC
SF-539 CNS = test system: SF-539 CNS
HCC-2998 colon = test system: HCC-2998 colon
HCT-116 colon = test system: HCT-116 colon
786-0 renal = test system: 786-0 renal
SR leukemia = test system: SR leukemia
A498 renal = test system: A498 renal
OVCAR-8 ovarian = test system: OVCAR-8 ovarian
EKVX NSCLC = test system: EKVX NSCLC
SNB-75 CNS = test system: SNB-75 CNS
SK-MEL-5 melanoma = test system: SK-MEL-5 melanoma
NCI-H460 NSCLC = test system: NCI-H460 NSCLC
NCI-H226 lung = test system: NCI-H226 lung
K-562 leukemia = test system: K-562 leukemia
MDA-MB-435 melanoma = test system: MDA-MB-435 melanoma
OVCAR-4 ovarian = test system: OVCAR-4 ovarian
RXF 393 renal = test system: RXF 393 renal
MDA-MB-468 breast = test system: MDA-MB-468 breast
SNB-19 CNS = test system: SNB-19 CNS
MOLT-4 leukemia = test system: MOLT-4 leukemia
U251 glioblastoma = test system: U251 glioblastoma
NCI-H23 lung = test system: NCI-H23 lung
SN12C renal = test system: SN12C renal
SW-620 colon = test system: SW-620 colon
KM12 colon = test system: KM12 colon
OVCAR-3 ovarian = test system: OVCAR-3 ovarian
BT-549 breast = test system: BT-549 breast
A549 NSCLC = test system: A549 NSCLC
ACHN renal = test system: ACHN renal
HS 578T breast = test system: HS 578T breast
SF-268 CNS = test system: SF-268 CNS
COLO 205 colon = test system: COLO 205 colon
TK-10 renal = test system: TK-10 renal
SK-MEL-2 melanoma = test system: SK-MEL-2 melanoma
NCI-H522 lung = test system: NCI-H522 lung
IGROV1 ovarian = test system: IGROV1 ovarian
DU-145 prostate = test system: DU-145 prostate
UACC-257 melanoma = test system: UACC-257 melanoma
RPMI-8226 leukemia = test system: RPMI-8226 leukemia
SK-OV-3 ovarian = test system: SK-OV-3 ovarian
NCI-H322M lung = test system: NCI-H322M lung
UO-31 renal = test system: UO-31 renal
HOP-92 NSCLC = test system: HOP-92 NSCLC
SF-295 CNS = test system: SF-295 CNS
MDA-MB-231 breast = test system: MDA-MB-231 breast

`CC(C)C[C@H](NC(=O)CNC(=O)c1cc(Cl)ccc1Cl)B1OC(=O)CC(CC(=O)O)(C(=O)O)O1` (stereo partly drawn) gave a GI50 (M14 melanoma) of 16.5 nM, a TGI (M14 melanoma) of 32.6 nM and a GI50 (UACC-62 melanoma) of 25.6 nM. For the same compound, the TGI (UACC-62 melanoma) was 66.1 nM, the GI50 (NCI/ADR-RES ovarian) was 189 nM and the TGI (NCI/ADR-RES ovarian) was 448 nM. It also gave a GI50 (OVCAR-5 ovarian) of 50.5 nM, a TGI (OVCAR-5 ovarian) of 181 nM and a GI50 (HCT-15 colon) of 36.7 nM. The TGI (HCT-15 colon) was 101 nM, the GI50 (SK-MEL-28 melanoma) was less than 14.4 nM and the TGI (SK-MEL-28 melanoma) was 25.3 nM. It also gave a GI50 (MCF7 breast) of less than 21.3 nM, a TGI (MCF7 breast) of 619 nM and a GI50 (T-47D breast) of 25.6 nM. It also gave a TGI (T-47D breast) of 70.8 nM, a GI50 (MALME-3M melanoma) of less than 13.7 nM and a TGI (MALME-3M melanoma) of 27.5 nM. The GI50 (HL-60(TB) leukemia) was less than 13.4 nM, the TGI (HL-60(TB) leukemia) was 19.9 nM and the GI50 (PC-3 prostate) was 48.1 nM. The TGI (PC-3 prostate) was 113 nM, the GI50 (LOX IMVI melanoma) was 33.9 nM and the TGI (LOX IMVI melanoma) was 125 nM. It also gave a GI50 (HT29 colon) of 23.4 nM, a TGI (HT29 colon) of 62.4 nM and a GI50 (CAKI-1 renal) of less than 20.4 nM. The TGI (CAKI-1 renal) was 152 nM, the GI50 (HOP-62 NSCLC) was 42.3 nM and the TGI (HOP-62 NSCLC) was 164 nM. The GI50 (SF-539 CNS) was 15.1 nM, the TGI (SF-539 CNS) was 31.3 nM and the GI50 (HCC-2998 colon) was 51.5 nM. It also gave a TGI (HCC-2998 colon) of 101 nM, a GI50 (HCT-116 colon) of less than 15.9 nM and a TGI (HCT-116 colon) of 34.7 nM. The GI50 ([…]-0 renal) was 24 nM, the TGI (786-0 renal) was 91.6 nM and the GI50 (SR leukemia) was less than 17.7 nM. For the same compound, the TGI (SR leukemia) was less than 21.6 nM, the GI50 (A498 renal) was less than 23.7 nM and the TGI (A498 renal) was 191 nM. The GI50 (OVCAR-8 ovarian) was 66.8 nM, the TGI (OVCAR-8 ovarian) was 158 nM and the GI50 (EKVX NSCLC) was 97.4 nM. The TGI (EKVX NSCLC) was 448 nM, the GI50 (SNB-75 CNS) was 47.4 nM and the TGI (SNB-75 CNS) was 118 nM. It also gave a GI50 (SK-MEL-5 melanoma) of less than 15.5 nM, a TGI (SK-MEL-5 melanoma) of 28.1 nM and a GI50 (NCI-H460 NSCLC) of 92.3 nM. For the same compound, the TGI (NCI-H460 NSCLC) was 317 nM, the GI50 (NCI-H226 lung) was less than 13.5 nM and the TGI (NCI-H226 lung) was 24.5 nM. For the same compound, the GI50 (K-562 leukemia) was 17.2 nM, the TGI (K-562 leukemia) was 35 nM and the GI50 (MDA-MB-435 melanoma) was less than 14.8 nM. It also gave a TGI (MDA-MB-435 melanoma) of 28.3 nM, a GI50 (OVCAR-4 ovarian) of 53.2 nM and a TGI (OVCAR-4 ovarian) of 117 nM. For the same compound, the GI50 (RXF 393 renal) was less than 14 nM, the TGI (RXF 393 renal) was 27.1 nM and the GI50 (MDA-MB-468 breast) was less than 14.4 nM. The TGI (MDA-MB-468 breast) was less than 20.6 nM, the GI50 (SNB-19 CNS) was 59.4 nM and the TGI (SNB-19 CNS) was 272 nM. The GI50 (MOLT-4 leukemia) was less than 12.8 nM, the TGI (MOLT-4 leukemia) was less than 17.4 nM and the GI50 (U251 glioblastoma) was 98.5 nM. For the same compound, the TGI (U251 glioblastoma) was 472 nM, the GI50 (NCI-H23 lung) was 26.8 nM and the TGI (NCI-H23 lung) was 75.5 nM. It also gave a GI50 (SN12C renal) of 87.3 nM, a TGI (SN12C renal) of 263 nM and a GI50 (SW-620 colon) of less than 15.3 nM. It also gave a TGI (SW-620 colon) of 33.2 nM, a GI50 (KM12 colon) of 54.7 nM and a TGI (KM12 colon) of 148 nM. It also gave a GI50 (OVCAR-3 ovarian) of less than 14.3 nM, a TGI (OVCAR-3 ovarian) of 26.4 nM and a GI50 (BT-549 breast) of 16.1 nM. It also gave a TGI (BT-549 breast) of 30.8 nM, a GI50 (A549 NSCLC) of 106 nM and a TGI (A549 NSCLC) of 1510 nM. For the same compound, the GI50 (ACHN renal) was less than 20.3 nM, the TGI (ACHN renal) was 63.7 nM and the GI50 (HS 578T breast) was 16.7 nM. For the same compound, the TGI (HS 578T breast) was 32.7 nM, the GI50 (SF-268 CNS) was 23.6 nM and the TGI (SF-268 CNS) was 53.8 nM. It also gave a GI50 (COLO 205 colon) of 58 nM, a TGI (COLO 205 colon) of 557 nM and a GI50 (TK-10 renal) of less than 18 nM. It also gave a TGI (TK-10 renal) of 53 nM, a GI50 (SK-MEL-2 melanoma) of 21.5 nM and a TGI (SK-MEL-2 melanoma) of 42 nM. It also gave a GI50 (NCI-H522 lung) of 15.7 nM, a TGI (NCI-H522 lung) of 31.1 nM and a GI50 (IGROV1 ovarian) of 70.6 nM. For the same compound, the TGI (IGROV1 ovarian) was 178 nM, the GI50 (DU-145 prostate) was 44.1 nM and the TGI (DU-145 prostate) was 233 nM. For the same compound, the GI50 (UACC-257 melanoma) was 17.3 nM, the TGI (UACC-257 melanoma) was 33.3 nM and the GI50 (RPMI-8226 leukemia) was less than 13.2 nM. It also gave a TGI (RPMI-8226 leukemia) of less than 17.7 nM, a GI50 (SK-OV-3 ovarian) of 204 nM and a TGI (SK-OV-3 ovarian) of 1550 nM. For the same compound, the GI50 (NCI-H322M lung) was 351 nM, the TGI (NCI-H322M lung) was 2020 nM and the GI50 (UO-31 renal) was 18 nM. It also gave a TGI (UO-31 renal) of 36.6 nM, a GI50 (HOP-92 NSCLC) of 30 nM and a TGI (HOP-92 NSCLC) of 71.8 nM. For the same compound, the GI50 (SF-295 CNS) was 30.5 nM, the TGI (SF-295 CNS) was 88.4 nM and the GI50 (MDA-MB-231 breast) was 33.3 nM. For the same compound, the TGI (MDA-MB-231 breast) was 86.3 nM.
